This passage reports IC50 results from paper PMC6954722 (Stem Cells Translational Medicine, 2019).

This experiment addresses Smoothened (Mus musculus, UniProt P56726). The experiment in a line: displacement of BODIPY-cyclopamine. The class given is cell-based.

The structures appear in SMILES notation.

Smoothened, sequence (P56726 33-793): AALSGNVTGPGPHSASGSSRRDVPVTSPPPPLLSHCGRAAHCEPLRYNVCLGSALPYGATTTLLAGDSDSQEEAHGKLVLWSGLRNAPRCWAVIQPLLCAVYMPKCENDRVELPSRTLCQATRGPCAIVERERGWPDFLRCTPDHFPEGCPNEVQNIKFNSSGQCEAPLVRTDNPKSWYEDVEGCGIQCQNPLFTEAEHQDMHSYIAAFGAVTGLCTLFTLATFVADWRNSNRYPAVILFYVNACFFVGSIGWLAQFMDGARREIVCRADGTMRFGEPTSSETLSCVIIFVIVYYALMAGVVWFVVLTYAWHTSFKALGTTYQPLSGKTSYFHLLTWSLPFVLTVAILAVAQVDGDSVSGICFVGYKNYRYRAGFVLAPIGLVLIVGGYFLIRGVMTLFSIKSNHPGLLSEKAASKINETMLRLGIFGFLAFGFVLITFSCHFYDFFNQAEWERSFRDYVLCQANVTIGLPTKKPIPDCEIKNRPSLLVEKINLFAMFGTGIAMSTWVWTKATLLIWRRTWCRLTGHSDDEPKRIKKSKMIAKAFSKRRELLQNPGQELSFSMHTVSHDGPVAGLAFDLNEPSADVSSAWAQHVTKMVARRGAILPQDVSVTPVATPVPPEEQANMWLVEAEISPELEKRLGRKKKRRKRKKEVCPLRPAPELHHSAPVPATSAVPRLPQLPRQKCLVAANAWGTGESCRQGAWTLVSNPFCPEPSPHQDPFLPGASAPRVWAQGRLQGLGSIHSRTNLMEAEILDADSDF

In general, IC50 refers to the concentration at which inhibition is half-maximal. Low values mean greater potency, high ones weaker potency. Regarding `O=[N+]([O-])c1ccc(S(=O)(=O)N2CCN(c3ccccc3)CC2)cc1` [compound #5, 1‐[(4‐nitrophenyl)sulfonyl]‐4‐phenylpiperazine], the IC50 worked out at 88 ± 3.7 µM.
